This is an account of results in patent publication US7897582B2, “Oligonucleotide compositions and methods for the modulation of the expression of B7 protein” (Isis Pharmaceuticals, Inc., priority 2003, dated 2011).

One data set relates to hB7-2 mRNA. The experiment in a line: Ribonuclease protection assay of hB7-2 mRNA in transfected COS-7 cells. It is filed as cell-based, human. How it is done: For ribonuclease protection assays, cells were harvested 18 hours after completion of oligonucleotide treatment using a Totally RNA™ kit (Ambion, Austin, Tex.). The probes for the assay were generated from plasmids pcB7-2 (linearized by digestion with Bgl II) and pTRI-b-actin (Ambion Inc., Austin, Tex.). In vitro transcription of the linearized plasmid from the SP6 promoter was performed in the presence of α-^32P-UTP (800 Ci/mmole) yielding an antisense RNA complementary to the 3′ end of B7-2 (position 1044-1391). The probe was gel-purified after treatment with DNase I to remove DNA template. Ribonuclease protection assays were carried out using an RPA II™ kit (Ambion) according to the manufacturer's directions. Total RNA (5 μg) was hybridized overnight, at 42° C., with 10^5 cpm of the B7-2 probe or a control beta-actin probe. The hybridization reaction was then treated, at 37° C. for 30 minutes, with 0.4 units of RNase A and 2 units of RNase T1. Protected RNA was precipitated, resuspended in 10 μL of gel loading buffer and electrophoresed on a 6% acrylamide gel with 50% w/v urea at 20 W. The gel was then exposed and the lanes quantitated using a PhosphorImager (Molecular Dynamics, Sunnyvale, Calif.) essentially according to the manufacturer's instructions.
The oligonucleotides were screened as described in Example 4 except that the concentration of oligonucleotide was varied as shown in Table 13. Mismatch control oligonucleotides were included.

In another data set the test system is Human B7-1 mRNA. The data set can be described thus: Human B7-1 mRNA expression in COS-7 cells, screened as in Example 4. In kind it is cell-based. The settings on record: human B7-1 mRNA; Table 7.
[1] abbreviates: COS-7 cells, B7-2 mRNA, oligonucleotide dose 10 nM, basal = 100%.
Where [2] appears, read: COS-7 cells, B7-2 mRNA, oligonucleotide dose 30 nM, basal = 100%.
[3] abbreviates: COS-7 cells, B7-2 mRNA, oligonucleotide dose 100 nM, basal = 100%.
The mark [4] stands for this setting: COS-7 cells, B7-2 mRNA, oligonucleotide dose 300 nM, basal = 100%.
Where [5] appears, read: COS-7 cells, B7-2 mRNA, oligonucleotide dose 10 nM.
[6] abbreviates: COS-7 cells, B7-2 mRNA, oligonucleotide dose 30 nM.

Strand notation (5' to 3'): a small letter for the sugar, then the base; units joined by * are phosphorothioate-linked, units joined directly phosphodiester-linked; [ ] holds rarer units or linkages, { } end groups; capitals alone tell only the bases. e = 2'-O-(2-methoxyethyl) (MOE); [5mC] = 5-methylcytosine; d = 2'-deoxy (DNA)

Consider “22303 (eA*eG*eA*eG*eT*dT*dG*d[5mC]*dG*dA*dG*dG*d[5mC]*d[5mC]*dG*e[5mC]*eT*eT*e[5mC]*eT; antisense) [compound 22303]”, for which the “% mRNA EXPRESSION” value in the data set with hB7-2 mRNA (human B7-2 mRNA, Table 12) is reported as 46%.
Same read-out and setting: then “22304 (eT*e[5mC]*e[5mC]*e[5mC]*eT*d[5mC]*dT*d[5mC]*d[5mC]*dA*dT*dT*dG*dT*dG*eT*eT*eG*eG*eT; antisense) [compound 22304]”, with 41%.
In the case of “22305 (e[5mC]*eA*eT*e[5mC]*eA*dG*dA*dT*d[5mC]*dT*dT*dT*d[5mC]*dA*dG*eG*eT*eA*eT*eA; antisense) [compound 22305]”, in the data set with hB7-2 mRNA (human B7-2 mRNA, Table 12), the “% mRNA EXPRESSION” value was found to be 57% and the “% mRNA INHIBITION” value is given as 43%.
Take “22306 (eG*eG*e[5mC]*eT*eT*dT*dA*d[5mC]*dT*d[5mC]*dT*dT*dT*dA*dA*eT*eT*eA*eA*eA; antisense) [compound 22306]”: in the data set on hB7-2 mRNA (human B7-2 mRNA, Table 12), the “% mRNA EXPRESSION” value was determined as 44%.
Same read-out and setting: the value for “22307 (eG*eA*eA*eA*eT*d[5mC]*dA*dA*dA*dA*dA*dG*dG*dT*dT*eG*e[5mC]*e[5mC]*e[5mC]*eA; antisense) [compound 22307]” was 45%; that for “22308 (eG*eG*eA*eG*eT*d[5mC]*d[5mC]*dT*dG*dG*dA*dG*d[5mC]*d[5mC]*d[5mC]*e[5mC]*e[5mC]*eT*eT*eA; antisense) [compound 22308]” was 40%; that for “22309 (eT*eT*eG*eG*e[5mC]*dA*dT*dA*d[5mC]*dG*dG*dA*dG*d[5mC]*dA*eG*eA*eG*e[5mC]*eT; antisense) [compound 22309]” was 42%.
On the same count and under the same terms, the value for “22310 (eT*eG*eT*eG*e[5mC]*dT*d[5mC]*dT*dG*dA*dA*dG*dT*dG*dA*eA*eA*eA*eG*eA; antisense) [compound 22310]” was 41%.
On the same count and under the same terms, the value for “22311 (eG*eG*e[5mC]*eT*eT*dG*dG*d[5mC]*d[5mC]*d[5mC]*dA*dT*dA*dA*dG*eT*eG*eT*eG*e[5mC]; antisense) [compound 22311]” was 49%.
For the substance “22312 (e[5mC]*e[5mC]*eT*eA*eA*dA*dT*dT*dT*dT*dA*dT*dT*dT*d[5mC]*e[5mC]*eA*eG*eG*eT; antisense) [compound 22312]”, in the data set with hB7-2 mRNA (human B7-2 mRNA, Table 12), the “% mRNA EXPRESSION” value was 83% and the “% mRNA INHIBITION” value stood at 17%.
As to “22313 (eA*eG*eA*e[5mC]*eT*d[5mC]*d[5mC]*dA*d[5mC]*dT*dT*d[5mC]*dT*dG*dA*eG*eA*eT*eG*eT; antisense) [compound 22313]”, in the data set with Human B7-1 mRNA, the “% mRNA EXPRESSION” value is recorded as 75% and the “% mRNA INHIBITION” value is 25%.
As for “22314 (eT*eG*eA*eA*eG*dA*dA*dA*dA*dA*dT*dT*d[5mC]*d[5mC]*dA*e[5mC]*eT*eT*eT*eT; antisense) [compound 22314]”, in the data set with Human B7-1 mRNA, the “% mRNA EXPRESSION” value is 69% and the “% mRNA INHIBITION” value is reported as 31%.
With “22315 (eT*eT*eT*eA*eG*dT*dT*dT*d[5mC]*dA*d[5mC]*dA*dG*d[5mC]*dT*eT*eG*e[5mC]*eT*eG) [compound 22315]”, the “% mRNA EXPRESSION” value with Human B7-1 mRNA is given as 49%.
With “22318 (eG*eT*eG*eA*eA*dA*dG*d[5mC]*d[5mC]*dA*dA*d[5mC]*dA*dA*dT*eT*eT*eG*eG*eA; antisense) [compound 22318]”, in the data set with Human B7-1 mRNA, the “% mRNA EXPRESSION” value is on record as 63% and the “% mRNA INHIBITION” value was determined as 37%.
The corresponding values for “22319 (e[5mC]*eA*eT*eG*eG*d[5mC]*dT*dT*d[5mC]*dA*dG*dA*dT*dG*d[5mC]*eT*eT*eA*eG*eG; antisense) [compound 22319]” are 68% and 32%.
“24736 (antisense eG*e[5mC]*eT*e[5mC]*e[5mC]*dA*dA*dG*dT*dG*dT*d[5mC]*d[5mC]*d[5mC]*dA*eA*eT*eG*eA*eA) [compound 24736]”: the “% mRNA EXPRESSION” value stood at 102% with hB7-2 mRNA (setting [1]), 101% with hB7-2 mRNA (setting [2]), 100% in the data set on hB7-2 mRNA (setting [3]) and 107% in the data set with hB7-2 mRNA (setting [4]).
“24737 (antisense eA*eG*eT*eA*eT*dG*dT*dT*dT*d[5mC]*dT*d[5mC]*dA*d[5mC]*dT*e[5mC]*e[5mC]*eG*eA*eT) [compound 24737]”: the “% mRNA INHIBITION” value with hB7-2 mRNA (setting [5]) stood at 15%; in the data set on hB7-2 mRNA (setting [6]) it was 5%; in the data set with hB7-2 mRNA (COS-7 cells, B7-2 mRNA, oligonucleotide dose 100 nM), 13%; in the data set on hB7-2 mRNA (COS-7 cells, B7-2 mRNA, oligonucleotide dose 300 nM) it was 1%. Further, the “% mRNA EXPRESSION” value in the data set on hB7-2 mRNA (setting [1]) is 85%; in the data set on hB7-2 mRNA (setting [2]), 95%; in the data set with hB7-2 mRNA (setting [3]), 87%; with hB7-2 mRNA (setting [4]), 99%.
Regarding “24738 (antisense eT*eG*e[5mC]*e[5mC]*eA*dG*d[5mC]*dA*d[5mC]*d[5mC]*d[5mC]*dG*dG*dT*dA*e[5mC]*eG*eT*e[5mC]*e[5mC]) [compound 24738]”, the “% mRNA INHIBITION” value stood at 19% in the data set on hB7-2 mRNA (setting [5]) and 8% in the data set with hB7-2 mRNA (setting [6]). The “% mRNA EXPRESSION” value in the data set on hB7-2 mRNA (setting [1]) was 81%; in the data set on hB7-2 mRNA (setting [2]), 92%; in the data set with hB7-2 mRNA (setting [3]), 101%; in the data set with hB7-2 mRNA (setting [4]), 124%.
